Columns and labels:
leukotriene D4 = molecular target: T1, leukotriene D4 (Cavia porcellus, UniProt Q2NNR5); test: Leukotriene D4 antagonistic effect in isolated trachea (Schild method); design: species or system male Hartley guinea-pigs; conditions: isolated trachea, 30 min treatment, indomethacin 3×10^-6 M, Krebs 37° C.
T1 construct: tracheas were isolated from male Hartley guinea-pigs; from tissue; host or cells: isolated trachea of male Hartley guinea-pigs
T1 sequence (Q2NNR5 1-340): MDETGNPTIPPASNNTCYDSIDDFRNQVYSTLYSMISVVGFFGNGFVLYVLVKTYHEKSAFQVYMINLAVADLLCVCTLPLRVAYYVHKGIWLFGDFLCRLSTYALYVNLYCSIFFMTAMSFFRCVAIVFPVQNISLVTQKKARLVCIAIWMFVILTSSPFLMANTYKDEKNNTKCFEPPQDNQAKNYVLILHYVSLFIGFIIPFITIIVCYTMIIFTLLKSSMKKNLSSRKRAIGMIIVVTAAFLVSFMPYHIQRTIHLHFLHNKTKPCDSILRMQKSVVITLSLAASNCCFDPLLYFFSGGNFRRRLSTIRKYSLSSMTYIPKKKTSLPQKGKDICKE
Description: According to an ordinary method, tracheas were isolated from male Hartley guinea-pigs, and ring specimens of approximately […] length were prepared. These specimens were suspended isotonically in organ baths that contained Krebs solution at 37° C. under a resting tension of 0.5 g. After repeated contractions with acetylcholine (1×10^-6 M; Ovisot for injection, Daiichi Seiyaku), and the first concentration-response curves was obtained by cummulative applications of leukotriene D4 (ULTRA FINE) into the organ baths. After treatments with test compounds at adequate concentrations for 30 min, the second concentration-response curves were obtained in the same manner as first applications. pKB values were calculated using these two concentration-response curves according to the method of Schild [Pharmacological Review, Vol. 9, 242 (1957)]. Indomethacin (3×10^-6 M; Sigma) was added beforehand to the organ bath to eliminate possible affections by thromboxane A2 and prostaglandin produced by stimulus of leukotriene D4 [Japan J. Pharmacol., Vol. 60, 227 (1992)].

thromboxane A2 receptor = molecular target: T2, thromboxane A2 receptor (Cavia porcellus, UniProt A0A286Y4I8); test: Thromboxane A2 antagonistic effect: inhibition of U-46619-induced platelet aggregation in guinea-pig platelet-rich plasma; format: cell-based, guinea-pigs; conditions: guinea-pig PRP, U-46619 2 μg/ml, 2 min at 37° C.; read-out: IC50 (50% inhibition against platelet aggregation)
T2 construct: platelet-rich plasma; endogenous in cells; host or cells: guinea-pig platelets in platelet-rich plasma
T2 sequence (A0A286Y4I8 1-347): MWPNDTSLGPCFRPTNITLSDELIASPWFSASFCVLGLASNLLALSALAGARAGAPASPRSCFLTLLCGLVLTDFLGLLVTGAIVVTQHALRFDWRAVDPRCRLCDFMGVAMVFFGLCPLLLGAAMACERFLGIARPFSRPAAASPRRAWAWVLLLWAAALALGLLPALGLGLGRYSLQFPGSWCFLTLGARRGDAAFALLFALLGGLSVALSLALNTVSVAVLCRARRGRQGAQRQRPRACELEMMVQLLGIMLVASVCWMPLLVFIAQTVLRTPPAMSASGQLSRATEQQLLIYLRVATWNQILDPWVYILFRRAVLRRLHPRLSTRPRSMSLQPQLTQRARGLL
Description: Blood was collected from the abdominal aorta of guinea-pigs (about 400 g wt.) into 1/10 volume of 3.8% sodium citrate, and then platelet-rich plasma (PRP: 6×10^5 cells/μl) was obtained by centrifugation. A cuvette was filled with PRP 190 μl and set in an aggregometer (Hema Tracer I; Niko Bioscience). Incubation was carried out for 2 min. at 37° C. after the addition of 1 μl of dimethyl sulfoxide solution of test compounds. To the PRP, 10 μl of U-46619 (Cayman), a thromboxane A2 /prostaglandin H2 receptor agonist and potent platelet aggregation inducer, was added at the final concentration of 2 μg/ml, and platelet aggregation was measured by an aggregometer.

[1] = test system: broncho-constriction induced by leukotriene D4; test: Inhibitory effect on broncho-constriction induced by leukotriene D4 (Konzett-Roessler method, oral); format: in vivo, male Hartley guinea-pig; conditions: Cavia porcellus, po; 30 mg/kg orally, leukotriene D4 1 μg/kg after 2 hr; indomethacin and propranolol pretreatment; read-out: Inhibition rate
Description: Airway resistance was evaluated according to the method of Konzett-Roessler[Naunyn-Schmiedberg's Arch. Exp. Path. Pharmak., Vol. 195, 71 (1940)]. After male Hartley guinea-pig fasted beforehand for 24 hr were anesthetized with urethane, overflowed air volume was measured under artificial ventilation as an index of broncho-constriction. 30 mg/kg (5 ml/kg) of test compounds suspended in 5% gum Arabic were administered orally to […]. Leukotriene D4 (1 μg/kg; ULTRA FINE) was administered through the cervical vein after 2 hr, and then values were measured at 2 min after the time when responses became maximum. Inhibitory rates compared to the control group were calculated based on the response rate normalized by the overflowed volume at complete closure as 100% broncho-constriction state. Indomethacin (2 mg/kg, i.v.) and propranolol (1 mg/kg, i.v.) were administered at 10 min and 5 min before the administration of leukotriene D4, respectively.

SMILES	Kb (leukotriene D4)	IC50 (thromboxane A2 receptor)	inhibition in vivo at 30 mg/kg [1]
C[C@H]1CC[C@H](C(NS(=O)(=O)c2ccc(Cl)cc2)c2ccc(CCCC(=O)O)cc2)CC1 (relative stereo) [Example 76, trans-4-[4-[(4-Chlorophenylsulfonylamino)(4-methylcyclohexyl)methyl]phenyl]butyric Acid]	0.2 µM		
CCCCC[C@H]1CC[C@H](C(NS(=O)(=O)c2ccc(Cl)cc2)c2ccc(CCCC(=O)O)cc2)CC1 (relative stereo) [Example 77, trans-4-[4-[(4-Chlorophenylsulfonylamino)(4-pentylcyclohexyl)methyl]phenyl]butyric Acid]	0.631 µM		
CC(C)CCC(NS(=O)(=O)c1ccc(Cl)cc1)c1ccc(CCCC(=O)O)cc1 (stereo not shown) [Example 71, 4-[4-[1-(4-Chlorophenylsulfonylamino)-4-methylpentyl]phenyl]butyric Acid]	0.2 µM	0.4 µM	68%
O=C(O)CCCc1ccc(C(NS(=O)(=O)c2ccc(Cl)cc2)C2CCCCCC2)cc1 (stereo not shown) [Example 75, 4-[4-[(4-Chlorophenylsulfonylamino)cycloheptylmethyl]phenyl]butyric Acid]	0.398 µM	0.32 µM	
O=C(O)CCCc1ccc(C(CC2CCCC2)NS(=O)(=O)c2ccc(Cl)cc2)cc1 (stereo not shown) [Example 78, 4-[4-[1-(4-Chlorophenylsulfonylamino)-2-cyclopentylethyl]phenyl]butyric Acid]	1 µM	0.32 µM	
CCCCCC(NS(=O)(=O)c1ccc(Br)cc1)c1ccc(CCCC(=O)O)cc1 (stereo not shown) [Example 104, 4-[4-[1-(4-Bromophenylsulfonylamino)hexyl]phenyl]butyric Acid]			83%
CCCCCC(NS(=O)(=O)c1ccc(F)cc1)c1ccc(CCCC(=O)O)cc1 (stereo not shown) [Example 105, 4-[4-[1-(4-Fluorophenylsulfonylamino)hexyl]phenyl]butyric Acid]			82%

More lines, main results first:

Kb (leukotriene D4)	IC50 (thromboxane A2 receptor)	SMILES	inhibition in vivo at 30 mg/kg [1]
0.2 µM		O=C(O)CCCc1ccc(C(CC23CC4CC(CC(C4)C2)C3)NS(=O)(=O)c2ccc(Cl)cc2)cc1 (stereo not shown) [Example 84, 4-[4-[2-(1-Adamantyl)-1-(4-chlorophenylsulfonylamino)ethyl]phenyl]butyric Acid]	
0.158 µM	0.4 µM	O=C(O)CCCc1ccc(C(CC2CC3CCC2C3)NS(=O)(=O)c2ccc(Cl)cc2)cc1 (stereo not shown) [Example 85, 4-[4-[1-(4-Chlorophenylsulfonylamino)-2-(2-norbornyl)ethyl]phenyl]butyric Acid]	
0.501 µM	0.16 µM	O=C(O)CCCc1ccc(C(Cc2ccc(F)cc2)NS(=O)(=O)c2ccc(Cl)cc2)cc1 (stereo not shown) [Example 95, 4-[4-[1-(4-Chlorophenylsulfonylamino)-2-(4-fluorophenyl)ethyl]phenyl]butyric Acid]	
0.2 µM		CCCCC(NS(=O)(=O)c1ccc(Cl)cc1)c1ccc(CCCCC(=O)O)cc1 (stereo not shown) [Example 102, 5-[4-[1-(4-Chlorophenylsulfonylamino)pentyl]phenyl]valeric Acid]	50%
0.126 µM		CCCCCC(NS(=O)(=O)c1ccc(Cl)cc1)c1ccc(CCCCC(=O)O)cc1 (stereo not shown) [Example 106, 5-[4-[1-(4-Chlorophenylsulfonylamino)hexyl]phenyl]valeric Acid]	58%
0.0398 µM	0.4 µM	O=C(O)CCCCc1ccc(C(CC2CCCCC2)NS(=O)(=O)c2ccc(Cl)cc2)cc1 (stereo not shown) [Example 113, 5-[4-[1-(4-Chlorophenylsulfonylamino)-2-cyclohexylethyl]phenyl]valeric Acid]	
0.2 µM	0.5 µM	O=C(O)CCCc1ccc(C(CCCCCc2ccccc2)NS(=O)(=O)c2ccc(Cl)cc2)cc1 (stereo not shown) [Example 116, 4-[4-[1-(4-Chlorophenylsulfonylamino)-6-phenylhexyl]phenyl]butyric Acid]	
0.251 µM		CCCCc1ccc(CCC(NS(=O)(=O)c2ccc(Cl)cc2)c2ccc(CCCC(=O)O)cc2)cc1 (stereo not shown) [Example 117, 4-[4-[3-(4-Butylphenyl)-1-(4-chlorophenylsulfonylamino)propyl]phenyl]butyric Acid]	

— patent US5597848A, “Benzenesulfonamide derivatives and use thereof” (Hokuriku Seiyaku Co., Ltd., priority 1992, dated 1997)
